From patent US20140142035A1, “METHODS AND COMPOSITIONS FOR MODULATING INSULIN REGULATION” (The Washington University, priority 2010, published 2014)
“Also recorded” adds a separate entry of the source. Where no end group is shown, it is not given here.

Columns and labels:
[1] = tested on: WT mice; assay: Plasma insulin 5 minutes after i.p. glucose with peptides, wild type mice; assay type: in vivo, mouse
Protocol: (§1) WT and DT mice were fasted for 16-h (Fast). As indicated, some mice were then administered an intraperitoneal injection of glucose (1 g/kg) with vehicle alone (BSA), GIP alone, Xenin-25 alone (Xen) or GIP plus Xenin-25 (G+X). […] Five minutes after injection of glucose, blood was collected and plasma prepared for insulin assays.
(§2) WT and DT mice were fasted for 16-h (Fast). As indicated, some mice were then administered an intraperitoneal injection of glucose (1 g/kg) with vehicle alone (BSA), GIP alone, Xenin-25 alone (Xen) or GIP plus Xenin-25 (G+X). Five minutes later, blood was collected. Plasma was then prepared and assayed for insulin.
(§3) Activation of parasympathetic neurons that innervate the pancreas can increase glucose-mediated insulin release in vivo. […] Wild type and GIP/DT mice were fasted overnight and then administered glucose in combination with GIP plus Xenin-25 by intraperitoneal injection. […] Blood was collected and plasma prepared 5 minutes after the glucose injection. […] Subsets of parasympathetic neurons that innervate the islets release vasoactive intestinal polypeptide (VIP) and pituitary adenylate cyclase activating peptide (PACAP) when activated. N-terminally truncated forms of PACAP [PACAP(6-38) or PACAP(6-27)] are competitive inhibitors of both VIP receptors (VPAC1 and VPAC2) as well as the PACAP-specific receptor Pac.

[2] = tested on: GIP/DT mice; assay: Plasma insulin 5 minutes after i.p. glucose with peptides, GIP/DT mice; assay type: in vivo, mouse
Protocol: as §1, §2, §3

[3] = tested on: perfused rat pancreas; conditions: supraphysiologic concentrations; cited from earlier work
[4] = tested on: MAPK signaling in Min6 Cells; assay: Western blot for phosphorylated (active) MAPK in Min6 cells; assay type: cell-based; conditions: 10 minutes, 7.5 mM glucose, 100 nM peptide
[5] = tested on: primary mouse islets; assay: Insulin release assay (static incubation) with primary mouse islets; assay type: cell-based; conditions: 100 nM peptide, 60 min, RIA
Protocol: (§4) Primary mouse islets (panel A) or MIN6 cells (panel B) were incubated for 1-h in insulin assay buffer (KRB) containing 2.5 mM glucose. Islets or cells were then switched to KRB containing the indicated concentration of glucose with or without 100 nM GIP, GLP-1, Xenin-8, or Xenin-25. Sixty-minutes later, assay buffer was collected and the amount of insulin released determined by RIA.
as §4, with “islets” for “islets (panel A) or MIN6 cells (panel B)”, “Islets” for “Islets or cells”, “Xenin-8.” for “GIP, GLP-1, Xenin-8, or Xenin-25.”
(§5) Insulin release assays (static incubations) were conducted at the indicated concentration of glucose with islets isolated from WT C57BL/6J mice (Panel A; 5 islets per sample; 6 samples per condition) or Min6 cells (Panels B, C; 4 wells per condition). 100 nM GIP, GLP-1, or Xenin-25 (Xen) was added to some samples in Panels A, B. Peptides were added at the indicated concentrations in Panels C.
Experiments were conducted to determine whether Xenin-25 acts directly on pancreatic islet beta cells (FIG. 23). Islets were isolated from wild type C57BL/6J mice and then subjected to insulin release assays (FIG. 23A) in the presence of different concentrations of glucose. […]

[6] = tested on: MIN6 cells; assay: Insulin release assay with MIN6 cells; assay type: cell-based; conditions: for glucose-stimulated insulin release: MIN6 cells, 100 nM peptide, 60 min
Protocol: as §4, §5
Next, studies were performed with MIN6 cells, a well-characterized, glucose-responsive, insulin-producing cell line. First, insulin release assays were conducted in the presence of peptides. […] Second, Min6 cells were treated with GLP-1, GIP, or Xenin-25 and Western blots conducted to determine whether the Xenin-25 increased MAPK signaling. […] Finally, insulin release assays were conducted in the presence of GIP plus Xenin-25.

[7] = tested on: NONcNZO10/Ltj mice; assay: Plasma insulin after i.p. glucose plus peptides in mouse model of human T2DM; assay type: in vivo; conditions: 8-week old pre-diabetic mice (FIG. 22A); 15 minutes after i.p. glucose 1 g/kg
Protocol: Panel A depicts plasma insulin levels in 8-week old pre-diabetic mice.
NONcNZO10/Ltj mice were fasted for 16-h. Blood was collected before (0) or 15 minutes after an intraperitoneal injection of glucose (1 g/kg) in the presence of vehicle alone (BSA), GIP alone, Xenin-25 alone (Xen) or GIP plus Xenin-25 (GIP+Xen). […] (FIG. 22A).

[8] = tested on: NONcNZO10/Ltj mice; assay: Blood glucose after i.p. glucose plus peptides in mouse model of human T2DM; assay type: in vivo; conditions: glucose 1 g/kg i.p.
Protocol: Panel A depicts blood glucose levels in 5-week old pre-diabetic mice. Panel B depicts blood glucose levels in 16-week old diabetic mice. Panel C depicts the area under the curve for data in panels A and B as well as for a third experiment using 18-week old mice. * indicates P value<0.05 versus mice of the same age receiving BSA alone.
At the age indicated in FIG. 21, mice were fasted for 16-h. Blood glucose levels were measured before and at the indicated time after an intraperitoneal injection of glucose (1 g/kg) plus vehicle alone (BSA), GIP alone, Xenin-25 alone (Xen) or GIP plus Xenin-25 (GIP+Xen).

In the case of `CN1[C@@H]2CC[C@H]1C[C@@H](OC(=O)C(CO)c1ccccc1)C2` (stereo partly drawn) [atropine], the “effect on insulin release with GIP plus Xenin-25” value ([1]; wild type mice, atropine i.p. 15 minutes before glucose) is reported as “no statistically significant effect on insulin release”.

In the case of “PACAP(6-38): N-terminally truncated PACAP; competitive inhibitor of VIP receptors (VPAC1 and VPAC2) and PACAP-specific receptor (FTDSYSRYRKQMAVKKYLAAVLGKRYKQRVKNK; ends and bridges not checked; UniProt P18509 137-169, looked up, fragment)”, the “inhibition of Xenin-25 potentiation of GIP-mediated increase in plasma insulin” value ([2]; given along with peptides (FIG. 25C), mouse line not stated) is reported as “did not inhibit Xenin-25 potentiation of the GIP-mediated increase in plasma insulin levels”.

In the case of “Xenin: xenin protein, form (xenin-25 or fragment) not specified at the place (MLTKFETKSARVKGLSFHPKRPWIL; Xenin; UniProt P53621 1-25, looked up)”, the glucose-stimulated insulin release [3] is listed as “increased glucose-stimulated insulin release”.

For “glucagon like peptide 1 (HAEGTFTSDVSSYLEGQAAKEFIAWLVKGR; ends and bridges not checked; UniProt P01275 98-127, looked up) [GLP-1, incretin hormone; synthetic GLP-1(7-36) used in vivo]”, the “phosphorylation of MAPK” value [4] was “profound increases in phosphorylation of MAPK”, the glucose-stimulated insulin release [5] was “insulin release is potentiated; also recorded: potentiate glucose-stimulated insulin release” and the glucose-stimulated insulin release [6] was “glucose-stimulated insulin release was amplified; also recorded: potentiate glucose-stimulated insulin release”.

In the case of “glucose-dependent insulinotropic polypeptide [GIP]”, the plasma insulin levels [7] is reported as “little effect on plasma insulin levels”, the “phosphorylation of MAPK” value [4] is reported as “profound increases in phosphorylation of MAPK” and the plasma insulin levels ([2]; GIP/DT mice, 5 minutes after i.p. glucose 1 g/kg) is reported as “much smaller increase in plasma insulin levels than was observed in WT mice”. The “blood glucose levels after i.p. glucose” value ([8]; 5-week old pre-diabetic mice) was “does not significantly improve blood glucose levels”, the “blood glucose levels after i.p. glucose” value ([8]; 16-week old diabetic mice) was “modest improvement in blood glucose levels” and the glucose-stimulated insulin release [5] was “insulin release is potentiated; also recorded: potentiate glucose-stimulated insulin release”. The glucose-stimulated insulin release [6] was “glucose-stimulated insulin release was amplified; also recorded: potentiate glucose-stimulated insulin release”, the “insulin release, GIP with/without Xenin-25” value ([6]; Min6 cells, peptides at indicated concentrations (FIG. 23C)) was “dose-dependent increase in insulin release” and the “increase in plasma insulin levels” value ([1]; WT mice, 5 minutes after i.p. glucose 1 g/kg) was “greater than 3 fold”.
